US10752588B2 (The Broad Institute, Inc., priority 2014, dated 2020)
pEC50, pIC50, pKi: −log10 of the molar value. Values after ≈ are worked out from the molar mass of the structure shown. Where two headings read alike, the source gives them in different places.

Legend:
plasma protein [1] = experiment: Plasma protein binding, human; assay type: in vitro ADME; settings: for fraction unbound: plasma, read-out: Plasma Protein Binding % bound
human D2R/β-arrestin [2] = molecular target: T1, human D2R/β-arrestin (Homo sapiens (Human), UniProt P14416); experiment: Gi/cAMP agonist assay (Lance Ultra cAMP, Forskolin); assay type: cell-based; settings: CHO-K1 cell line expressing human D2R/β-arrestin
How it was run: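 Cells were plated and incubated before compounds were pin-transferred and incubated for 10 min at 37 °C. Forskolin was then added to stimulate cAMP. cAMP was detected by Lance Ultra TR-FRET using Eu-cAMP tracer and ULight-anti-cAMP antibody.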

human D2R/β-arrestin [3] = molecular target: T1, human D2R/β-arrestin; experiment: β-Arrestin agonist assay (PathHunter); assay type: cell-based; settings: CHO-K1 cell line expressing human D2R/β-arrestin
How it was run: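 After compound incubation, detection reagent (Buffer:Emerald II:Galactor-Star, 19:5:1) added and luminescence or fluorescence read.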

Plasma stability, human = assay type: in vitro ADME
human D2R/β-arrestin [4] = molecular target: T1, human D2R/β-arrestin; settings: read-out: cAMP Antagonist
[5] = Microsomal stability, human; assay type: in vitro ADME
Solubility in PBS = assay type: physicochemical
plasma protein [6] = experiment: Plasma protein binding, rat; assay type: in vitro ADME; settings: for fraction unbound: plasma, read-out: Plasma Protein Binding % bound
plasma protein [7] = experiment: Plasma protein binding, mouse; assay type: in vitro ADME; settings: for fraction unbound: plasma, read-out: Plasma Protein Binding % bound
[8] = Microsomal stability, mouse
human D2R/β-arrestin [9] = molecular target: T1, human D2R/β-arrestin; settings: read-out: β-arrestin Antagonist
[10] = Microsomal stability, rat; assay type: in vitro ADME
Plasma stability, rat = assay type: in vitro ADME
human D2R/β-arrestin [11] = molecular target: T1, human D2R/β-arrestin; experiment: cell-based; settings: β-arrestin Antagonist, CHO-K1 cell line expressing human D2R/β-arrestin; quinpirole used as agonist
human D2R/β-arrestin [12] = molecular target: T1, human D2R/β-arrestin; experiment: cell-based; settings: cAMP Antagonist, CHO-K1 cell line expressing human D2R/β-arrestin; quinpirole used as agonist
D2 = D2 (Homo sapiens (Human), UniProt P14416); experiment: D2 radioligand binding assay
Chain of D2 (P14416 whole entry): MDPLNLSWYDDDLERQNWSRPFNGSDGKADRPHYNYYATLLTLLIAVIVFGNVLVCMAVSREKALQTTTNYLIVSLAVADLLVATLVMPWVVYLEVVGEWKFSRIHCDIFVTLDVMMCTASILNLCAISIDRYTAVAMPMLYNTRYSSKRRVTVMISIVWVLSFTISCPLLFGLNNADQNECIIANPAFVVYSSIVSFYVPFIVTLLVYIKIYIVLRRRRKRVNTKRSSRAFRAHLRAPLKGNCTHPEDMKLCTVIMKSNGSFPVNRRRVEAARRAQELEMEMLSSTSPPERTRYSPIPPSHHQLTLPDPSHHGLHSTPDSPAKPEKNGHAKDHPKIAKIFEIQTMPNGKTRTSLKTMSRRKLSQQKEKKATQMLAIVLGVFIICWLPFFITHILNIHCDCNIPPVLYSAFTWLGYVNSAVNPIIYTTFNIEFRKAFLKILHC

T1 sequence (P14416 whole entry): as above

SMILES	pEC50 (human D2R/β-arrestin [2])	pEC50 (human D2R/β-arrestin [3])	Plasma Stability: % remaining after 5 hours (Plasma stability, human)	Microsomal Stability: % remaining after 60 minutes [5]	Plasma Stability: % remaining after 5 hours (Plasma stability, mouse)	Microsomal Stability: % remaining after 60 minutes [8]	Microsomal Stability: % remaining after 60 minutes [10]	Plasma Stability: % remaining after 5 hours (Plasma stability, rat)	fraction unbound (plasma protein [1])	solubility (Solubility in PBS; aqueous buffer)	fraction unbound (plasma protein [6])	fraction unbound (plasma protein [7])	pIC50 (human D2R/β-arrestin [11])	pIC50 (human D2R/β-arrestin [12])	other results
O=C(NC(c1ccccn1)c1ccccc1F)C1CCN(CCOc2ccccc2)CC1 (centres unmarked) [Compound 28]	6.00 to 7.00	< 4.52	100%	87%	95%	52%	78%	99%							Plasma Protein Binding % bound (plasma protein [1]): 75.3%; pIC50 (human D2R/β-arrestin [4]): < 4.52; solubility (Solubility in PBS): 434 µM (≈ 188 µg/mL); Plasma Protein Binding % bound (plasma protein [6]): 76.7%; Plasma Protein Binding % bound (plasma protein [7]): 72.2%; pIC50 (human D2R/β-arrestin [9]): 5.00 to 6.00
O=C(NC(c1ccc(Cl)cc1)c1ccccn1)C1CCN(CCOc2ccccc2F)CC1 (centres unmarked) [Compound 3]	> 7.00	< 4.52	92%	64%	100%	22%	44%	86%	0.246	43 µM (≈ 20.1 µg/mL)	0.315	0.015	6.00 to 7.00	< 4.52	
O=C(NC(c1ccc(C(F)(F)F)cc1)c1ccccn1)C1CCN(CCOc2ccccc2)CC1 (centres unmarked) [Compound 31, 1-(2-phenoxyethyl)-N-(pyridin-2-yl(4-(trifluoromethyl)phenyl)methyl) piperidine-4-carboxamide]	6.00 to 7.00	< 4.52	94.2%	53%	84.5%	57%	55%	100%	0.023	27 µM (≈ 13.1 µg/mL)	0.014	0.026	5.00 to 6.00	< 4.52	
O=C(NC(c1ccc(Cl)cc1)c1ccccn1)C1CCN(CCOc2ccc3ccc(=O)[nH]c3c2)CC1 (centres unmarked) [Compound 15]	< 4.52	< 4.52	96%	56%	100%	44%	68%	91%							Plasma Protein Binding % bound (plasma protein [1]): 97.7%; pIC50 (human D2R/β-arrestin [4]): < 4.52; solubility (Solubility in PBS): 4.1 µM (≈ 2.12 µg/mL); Plasma Protein Binding % bound (plasma protein [6]): 99.0%; Plasma Protein Binding % bound (plasma protein [7]): 97.4%; pIC50 (human D2R/β-arrestin [9]): 4.52 to 5.00
O=C(NC(c1cccc(Cl)c1)c1ccccn1)C1CCN(CCOc2ccccc2)CC1 (centres unmarked) [Compound 23]	< 4.52	< 4.52	100%	76%	100%	41%	77%	96%	0.023	225 µM (≈ 101 µg/mL)	0.033	0.03	6.00 to 7.00	6.00 to 7.00	
O=C(NC(c1ccc(F)cc1)c1ccc(Cl)cc1)C1CCN(CCOc2ccccc2)CC1 (centres unmarked) [Compound 42]	6.00 to 7.00	< 4.52	98%	40%	100%	59%	70%	93%	0.007	< 0.1 µM	0.014	0.007	6.00 to 7.00	6.00 to 7.00	pKi (D2): 6.00 to 7.00
O=C(NC(c1ccc(Cl)cc1)c1ccccn1)C1CCN(CCOc2ccc3cccnc3c2)CC1 (centres unmarked) [Compound 16]	> 7.00	5.00 to 6.00	98%	34%	94%	45%	75%	97%	0.01	14 µM (≈ 7.01 µg/mL)	0.021	0.023	< 4.52	< 4.52	pKi (D2): 4.52 to 5.00
O=C(NC(c1ccc(Cl)cc1)c1ccccn1)C1CCN(CCOc2cc(F)ccc2F)CC1 (centres unmarked) [Compound 14]	> 7.00	< 4.52	96.7%	49%	100%	11%	44%	78.2%	0.009	36.1 µM (≈ 17.5 µg/mL)	0.006	0.015	6.00 to 7.00	< 4.52	
O=C(NC(c1ccc(Cl)cc1)c1ccccn1)C1CCN(CCOc2ccc(F)cc2)CC1 (centres unmarked) [Compound 5]	4.52 to 5.00	< 4.52	91.2%	71%	90.5%	42%	84%	95.2%	0.195	311 µM (≈ 146 µg/mL)	0.142	0.021	5.00 to 6.00	5.00 to 6.00	
O=C(NC(c1ccccc1)c1ccc(Cl)cc1)C1CCN(CCOc2ccccc2)CC1 (centres unmarked) [Compound 39]	< 4.52	< 4.52	100%	49%	93%	65%	55%	86%	0.021	3.3 µM (≈ 1.48 µg/mL)	0.046	0.02	6.00 to 7.00	6.00 to 7.00	
O=C(NC(c1ccc(Cl)cc1)c1ccccn1)C1CCN(CCn2ccc(=O)cc2)CC1 (centres unmarked) [Compound 11]	< 4.52	< 4.52	98.2%	95%	89.5%	100%	100%	100%	0.485	> 500 µM	0.211	0.391	< 4.52	4.52 to 5.00	pKi (D2): 4.52 to 5.00
O=C(NC(c1ccccc1)c1ccc(F)cc1)C1CCN(CCOc2ccccc2)CC1 (centres unmarked) [Compound 45]	< 4.52	< 4.52	95%	56%	91%	62%	59%	85%	0.017	6.5 µM (≈ 2.81 µg/mL)	0.012	0.015	> 7.00	> 7.00	
O=C(NC(c1cccc(C(F)(F)F)c1)c1ccccn1)C1CCN(CCOc2ccccc2)CC1 (centres unmarked) [Compound 32, 1-(2-phenoxyethyl)-N-(pyridin-2-yl(3-(trifluoromethyl)phenyl)methyl) piperidine-4-carboxamide]	4.52 to 5.00	< 4.52	91%	61%	74%	37%	46%	98%	0.03	151 µM (≈ 73 µg/mL)	0.023	0.031	6.00 to 7.00	6.00 to 7.00	
